ChEMBL document CHEMBL1140825, “Cy3-3-acylcholine: a fluorescent analogue of acetylcholine for single molecule detection” (Bioorg Med Chem Lett, 2008)
Active and inactive are the calls of the source. The calls are words filed in the database; no cut-off is given here.

Key:
[1] = biological target: Neuronal acetylcholine receptor subunit alpha-4 (Gallus gallus) (UniProt P09482); experiment: Agonist activity at chicken nACh receptor alpha4beta2 expressed in Xenopus laevis oocytes assessed as time taken for current to decay from its peak to 50% at 100 nM by two-electrode voltage clamp assay; assay type: functional, cell-based; settings: Oocyte
[2] = test system: Tetronarce californica; experiment: Displacement of non fluorescent acetylcholine from torpedo californica nACh receptor
[3] = test system: Tetronarce californica; experiment: Binding affinity to Torpedo californica nACh receptor in reconstituted diphytanoylphosphatidylcholine/cholesterol vesicles

Neuronal acetylcholine receptor subunit alpha-4 (Gallus gallus), sequence (P09482 whole entry): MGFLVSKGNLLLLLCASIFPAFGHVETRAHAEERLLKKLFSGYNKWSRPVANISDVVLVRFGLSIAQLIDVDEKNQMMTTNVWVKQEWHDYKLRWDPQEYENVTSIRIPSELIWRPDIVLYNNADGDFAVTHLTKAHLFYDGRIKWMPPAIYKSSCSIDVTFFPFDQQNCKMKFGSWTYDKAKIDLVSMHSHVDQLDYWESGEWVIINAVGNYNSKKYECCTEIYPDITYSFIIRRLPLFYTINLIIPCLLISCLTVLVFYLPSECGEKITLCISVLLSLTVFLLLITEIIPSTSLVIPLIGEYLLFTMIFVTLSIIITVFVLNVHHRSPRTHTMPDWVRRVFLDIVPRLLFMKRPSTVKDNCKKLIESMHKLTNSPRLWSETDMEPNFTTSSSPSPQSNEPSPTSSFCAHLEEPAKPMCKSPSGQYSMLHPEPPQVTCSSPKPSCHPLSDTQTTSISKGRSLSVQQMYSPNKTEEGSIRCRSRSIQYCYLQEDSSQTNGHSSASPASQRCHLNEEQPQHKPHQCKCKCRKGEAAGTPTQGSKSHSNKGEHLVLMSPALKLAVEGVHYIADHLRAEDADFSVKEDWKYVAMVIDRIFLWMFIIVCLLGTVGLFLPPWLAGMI

- T1/2 [1]: 25 s
- Activity [2]: Active
- Activity [3]: Active
Structure (SMILES): CCN1/C(=C/C=C/C2=[N+](CCCCCC(=O)NCCCC(=O)OCC[N+](C)(C)C)c3ccc(S(=O)(=O)[O-])cc3C2(C)C)C(C)(C)c2cc(S(=O)(=O)[O-])ccc21
